Numbers after ± are expanded uncertainties.
Assay: xn = mol fraction of the nth substance listed
Conditions: 298.15 K, 101 kPa, Liquid

O=C1CCCN1 [2-pyrrolidinone] + O
Conditions | mass density [kg/m3] | speed of sound [m/s]
x1 = 0.03793 | 1015.26 ± 0.6 | 1577.4 ± 6.1
x1 = 0.05001 | 1020.61 ± 0.63 | 1597.6 ± 6.2
x1 = 0.07966 | 1032.48 ± 0.71 | 1632.1 ± 6.3
x1 = 0.1093 | 1042.93 ± 0.77 | 1670 ± 6.4
x1 = 0.122 | 1046.78 ± 0.8 | 1684.5 ± 6.5
x1 = 0.1582 | 1056.77 ± 0.87 | 1708 ± 6.5
x1 = 0.1789 | 1062.24 ± 0.9 | 1716.5 ± 6.6
x1 = 0.2155 | 1070.34 ± 0.96 | 1726.6 ± 6.6
x1 = 0.2352 | 1074.91 ± 0.99 | 1732.1 ± 6.6
x1 = 0.2473 | 1077.08 ± 1 | 1735.2 ± 6.6
x1 = 0.2794 | 1081.92 ± 1 | 1737.3 ± 6.6
x1 = 0.3497 | 1088.62 ± 1.1 | 1735.5 ± 6.6
x1 = 0.4199 | 1093.46 ± 1.1 | 1727.8 ± 6.6
x1 = 0.5013 | 1097.41 ± 1.2 | 1715.8 ± 6.6
x1 = 0.549 | 1099.18 ± 1.2 | 1708.8 ± 6.6
x1 = 0.6133 | 1101.6 ± 1.2 | 1698.7 ± 6.5
x1 = 0.6705 | 1102.82 ± 1.3 | 1683.4 ± 6.5
x1 = 0.7037 | 1103.16 ± 1.3 | 1678.5 ± 6.5
x1 = 0.8117 | 1105.88 ± 1.3 | 1658 ± 6.4
x1 = 0.8353 | 1106.12 ± 1.3 | 1654.6 ± 6.4
x1 = 0.8593 | 1106.38 ± 1.4 | 1651.3 ± 6.4
x1 = 0.8813 | 1106.59 ± 1.4 | 1647.9 ± 6.4
x1 = 0.9413 | 1107.13 ± 1.4 | 1640.7 ± 6.4
x1 = 1 | 1107.52 ± 1.4 | 1633.7 ± 6.4

From the NIST ThermoML archive (doi:10.1016/j.jct.2007.05.015)
